One series has as its system PC-3. Kind of series: Cytotoxicity against human PC3 cells after 7 days by MTT assay. As to conditions: PC-3, 168 h, read-out: ED50 (the source's name). The format is functional.
For a further series, the system named is A549. Kind of series: Cytotoxicity against human A549 cells after 7 days by MTT assay. The format is functional. As to conditions: A549, 168 h, read-out: ED50 (the source's name).
For a further series, the system named is A498. In words: Cytotoxicity against human A498 cells after 7 days by MTT assay. As to conditions: A498, 168 h, read-out: ED50 (the source's name). It counts as functional.
Series [1] in a line: Toxicity in brine shrimp larvae. It counts as organism-based. As to conditions: artemia, in vivo.
The test system of another series is MIA PaCa-2. Kind of series: Cytotoxicity against human MIAPaCa2 cells after 7 days by MTT assay. It counts as functional. As to conditions: MIA PaCa-2, 168 h, read-out: ED50 (the source's name).
A further series has as its system HT-29. In words: Cytotoxicity against human HT29 cells after 7 days by MTT assay. As to conditions: for EC50: Homo sapiens, HT-29, 168 h, read-out: ED50 (the source's name). It counts as functional.
Another series deals with MCF7. In words: Cytotoxicity against human MCF7 cells after 7 days by MTT assay. It counts as functional. As to conditions: MCF7, 168 h, read-out: ED50 (the source's name).

Molecules are shown by their SMILES. In brackets after ≈: the same amount, converted by molar mass.

In the case of `CCCCCCCCCCCCCCC(Cl)[C@@H]1CC[C@H]([C@@H]2CC[C@@H](CCCCC[C@H](Cl)CC3=C[C@H](C)OC3=O)O2)O1` (stereo not given in full), the EC50 was 0.755 µg/mL (≈ 1.23 µM) in the series on PC-3; 2.39 µg/mL (≈ 3.88 µM) in the series with A549; 2.47 µg/mL (≈ 4.01 µM) with A498; 1.16 µg/mL (≈ 1.88 µM) with MIA PaCa-2; greater than 10 µg/mL with HT-29; greater than 10 µg/mL in the series on MCF7. The LC50 in series [1] stood at 31.9 µg/mL (≈ 51.8 µM).

As to `CCCCCCCCCCCCCC[C@@H](O)[C@H](O)CC[C@H](O)[C@@H]1CC[C@@H](CCCCC[C@H](Cl)CC2=C[C@H](C)OC2=O)O1`, the EC50 is greater than 10 µg/mL in the series with PC-3; greater than 10 µg/mL with A549; greater than 10 µg/mL with A498; greater than 10 µg/mL with MIA PaCa-2; 0.38 µg/mL (≈ 0.618 µM) in the series with HT-29; 5.74 µg/mL (≈ 9.33 µM) in the series with MCF7. Also, the LC50 in series [1] was 54.6 µg/mL (≈ 88.7 µM).

On to `CCCCCCCCCCCCCC[C@H](O)[C@@H]1CC[C@@H]([C@@H]2CC[C@@H](CCCCC[C@@H](O)CC3=C[C@H](C)OC3=O)O2)O1` [ASIMILOBIN], for which the EC50 with HT-29 is 0.063 µg/mL (≈ 0.109 µM).

In the case of `COc1cccc2c1C(=O)c1c(O)c3c(c(O)c1C2=O)C[C@@](O)(C(=O)CO)C[C@@H]3O[C@H]1C[C@H](N)[C@H](O)[C@H](C)O1` [DOXORUBICIN], the EC50 in the series with PC-3 worked out at 0.0262 µg/mL (≈ 0.0482 µM); with A549, 0.0243 µg/mL (≈ 0.0447 µM); in the series with A498, 0.00649 µg/mL (≈ 0.0119 µM); with MIA PaCa-2, 0.0079 µg/mL (≈ 0.0145 µM); in the series with HT-29, 0.0346 µg/mL (≈ 0.0637 µM); in the series on MCF7 it was 0.209 µg/mL (≈ 0.385 µM).

`CCCCCCCCCCCCCC[C@@H](O)[C@H](O)CC[C@H](O)[C@@H]1CC[C@@H](CCCCC[C@@H](O)CC2=C[C@H](C)OC2=O)O1` [GIGANTETROCIN A]: the EC50 turned out to be 0.25 µg/mL (≈ 0.419 µM) with A549 and 0.63 µg/mL (≈ 1.06 µM) in the series with MCF7. Besides, the LC50 in series [1] was 2.6 µg/mL (≈ 4.36 µM). For the same compound, in the series on HT-29, the ED50 is 4.1 ×10⁻⁵ ug/ml.

For the origin of these results see ChEMBL document CHEMBL1158306, “Chlorinated annonaceous acetogenins and their bioactivities” (J Nat Prod, 1996).
